Common to all, as to assay type: in vivo
Assay [1] relates to type 2 diabetic db/db mice. The experiment in a line: Histological examination (H&E, trichrome, Safranin O) of ilium (femur) and lumbar vertebra 5, db/db mice. As to conditions: adiporon 30 mg/kg/day, 4 weeks. How it is done: A leptin receptor-defective type 2 diabetic animal model (db/db mice) and a normal control group (db/m mice) were used, and the experiment was performed by dividing into 4 groups as follows: non-diabetic control group (dm cont, n=8), non-diabetic adiporon treatment group (dm+AdipoR, n=8), diabetic control group (db cont, n=8) and diabetic adiporon treatment group (db+AdipoR, n=8). The control group was fed a normal diet, and the adiporon treatment group was fed a diet comprising adiporon (30 mg/kg/day) for 4 weeks from 16 weeks of age. During the experiment, body weight was measured every week, fasting blood glucose was measured using an Accu-Chek meter (Roche Diagnostics, St. Louis, MO) every 2 weeks after blood was collected from the tail vein, and glycated hemoglobin (HbA1c) was measured every 4 weeks using a […] automatic analyzer (Bayer healthcare LLC, IN) after blood was collected from the tail vein. The temperature and humidity of the breeding room were maintained at 20˜25° C. and 50˜60%, respectively, and the lights were turned on and off at 12-hour intervals. After removing tissues of the femur and L5 lumbar vertebrae, some of them were fixed in 10% formalin for immunostaining and decalcified. Thereafter, after neutralization with 0.5M Phosphate buffer (pH 7.4), washing, and embedding in paraffin. Tissue sections were cut to a thickness of 5 μm, and hematoxylin and eosin staining (H&E staining), trichrome staining, and Safranin O staining were performed. In bone tissue, double immunofluorescence staining method was performed using anti-adiponectin receptor 1/2 antibody, anti-perilipin-1 antibody, anti-RANKL antibody, anti-TNF-α antibody, and ApopTag Fluorescein In Situ Apoptosis Detection Kit (Chemicon International, Temecula, CA) and expression was observed using a confocal microscope.

Assay [2] deals with type 2 diabetic db/db mice. Description: Micro-CT of ilium (femur) and lumbar vertebra 5, db/db mice. As to conditions: adiporon 30 mg/kg/day, 4 weeks. How it is done: A leptin receptor-defective type 2 diabetic animal model (db/db mice) and a normal control group (db/m mice) were used, and the experiment was performed by dividing into 4 groups as follows: non-diabetic control group (dm cont, n=8), non-diabetic adiporon treatment group (dm+AdipoR, n=8), diabetic control group (db cont, n=8) and diabetic adiporon treatment group (db+AdipoR, n=8). The control group was fed a normal diet, and the adiporon treatment group was fed a diet comprising adiporon (30 mg/kg/day) for 4 weeks from 16 weeks of age. During the experiment, body weight was measured every week, fasting blood glucose was measured using an Accu-Chek meter (Roche Diagnostics, St. Louis, MO) every 2 weeks after blood was collected from the tail vein, and glycated hemoglobin (HbA1c) was measured every 4 weeks using a […] automatic analyzer (Bayer healthcare LLC, IN) after blood was collected from the tail vein. The temperature and humidity of the breeding room were maintained at 20˜25° C. and 50˜60%, respectively, and the lights were turned on and off at 12-hour intervals. The imaging was performed with micro-CT (Skyscan 1172, Belgium), the tube voltage was 60 kV, the tube current was 167 uA, 0.5 mm aluminum filtration was used, and the pixel size was 5.9 μm. For the shooting angle, a 2-dimensional image was reconstructed with Nrecon Reconstruction (Skyscan, Belgium). For 3D image analysis, CTAn (Skyscan, Belgium) was used, images were obtained by rotating 360°, and exposure time was 440 ms. A total of 7 types of indicators were used in this invention. BMD (bone mineral density, bone density) was measured based on phantoms of 0.25 g/cm^3 and 0.75 g/cm^3. BV/TV (Bone volume/Total volume, percent bone volume, %) is the ratio of voxels representing the solid region out of the total voxels present in the binarized and surfaced volume of interest, and it means the ratio occupied by bone trabeculae within the volume of interest, and i.s (Interception surfaces, mm2) means the generation of new bone. […] BS/BV (Bone surface/Bone volume, bone specific surface, mm^−1) is the ratio of the voxel surface area to the number of voxels in the binarized solid region within the volume of interest and it means the ratio of the surface area of the trabecular bone to the volume of the trabecular bone. The lower the value, the higher the bone strength. Tb.Th (trabecular thickness, mm) is obtained by averaging the diameters of these spheres, after placing a sphere comprising the corresponding voxel for each voxel representing the solid region within the volume of interest so that the size of the sphere is the largest that includes only the solid region and it means the average thickness of the trabecular bone. […] In the same way, using Tb.Sp (trabecular separation, mm), the average length between trabecular lines and Tb.N (trabecular number, mm^−1) were used to obtain the average number of trabecular lines.

Assay [3] deals with ovariectomized C57BL/6 mice. The experiment in a line: Serum ACP5/TRAP, osteocalcin and urine deoxypyridinoline by ELISA, ovariectomized mice. To be noted: for Increased concentration of deoxypyridinoline in urine: P<0.05. The method, then: 7 weeks after ovariectomization or sham surgery of 7-week-old C57BL/6 mice, normal feed group (adiporon non-administered group; control group) administration group, 2.5 mg/kg day or 25 mg/kg day, respectively Feed comprising adiporon was consumed for 6 weeks from 14 weeks of age. Body weight was measured every week during the experiment period, and the experiment was conducted after 6 weeks of administration. In both experiments, blood collected from each mouse was allowed to stand at room temperature for 30 minutes, and then centrifuged at 3000 rpm for 15 minutes to obtain serum. Blood levels of tartrate-resistant acid phosphatase (TRAP/ACP5) and osterocalcin concentration were measured by ELISA. In addition, 8-hydroxy-deoxyguanosine, a DNA damage marker caused by oxidative stress, and isoprostane, a marker of oxidative stress caused by lipid peroxidation caused by free fatty acids, and deoxypyridinoline (DPP), which indicates the function of osteoclasts, were measured in 24-hour urine concentrations by ELISA method.
(In general: ELISA stands for enzyme-linked immunosorbent assay.)

[4] abbreviates: adiporon 2.5 or 25 mg/kg day, dose not distinguished, ELISA.

As for `Cl.O=C(COc1ccc(C(=O)c2ccccc2)cc1)NC1CCN(Cc2ccccc2)CC1` [adiporon], in assay [1] (ilium (femur)), the “Decrease in the ilium growth plate (thickness)” value is listed as “recovered”, the “Increase in adipose tissue in tissue” value is listed as “recovered” and the “Increase in fibrosis in tissue” value is reported as “recovered”. For the same compound, in assay [1] (vertebrae (lumbar vertebrae 5)), the “Increase in adipose tissue in tissue” value is reported as “reversed” and the “Increase in fibrosis in tissue” value was “reversed”. In assay [2] (ilium), the “Bone mineral density index (micro-CT)” value is “significantly increased and improved”; the “Bone surface index (micro-CT)” value is “significantly increased and improved”; the “Bone volume index (micro-CT)” value was “significantly increased and improved”; the “Trabecular number index (micro-CT)” value is “significantly increased and improved”. Moreover, the “Trabecular thickness index (micro-CT)” value in assay [2] (ilium) is “significantly increased and improved”. In assay [2] (vertebrae (lumbar vertebrae 5)), the “Trabecular thickness (micro-CT)” value was “increased and improved”. Further, the “Increased concentration of deoxypyridinoline in urine” value in assay [3] (adiporon 2.5 mg/kg day vs not administered) is reported as “significantly reduced”. Also, the “Increased concentration of deoxypyridinoline in urine” value in assay [3] (adiporon 25 mg/kg day vs not administered) is recorded as “significantly reduced”. In addition, in assay [3] (setting [4]), the “Decreased serum osteocalcin concentration” value is listed as “reversed” and the “Serum ACP5/TRAP concentrations” value is recorded as “no such change”.

The values above are taken from patent US20240016788A1, “PHARMACEUTICAL COMPOSITION FOR PREVENTING OR TREATING DIABETIC AND POSTMENOPAUSAL OSTEOPOROSIS, CONTAINING ADIPORON” (PnP Biopharm Co., Ltd., priority 2020, published 2024).
